Results reported in patent US12201608B2, “Methods for treating Parkinson's disease by administering resiniferatoxin” (Sorrento Therapeutics, Inc., priority 2018, dated 2025).

Experiments:
[1] = Pilot tolerability study of intrathecal RTX infusion; assay type: in vivo, C57Bl/6J mice
Procedure: The purpose of this study was to investigate the effects of single intrathecal administration of RTX on the AAV-A53T mouse model of PD-like pathology. Prior to this study start, a pilot tolerability study was conducted in which 16 male and 16 female C57Bl/6J mice were infused with RTX at two doses (either 0.04 μg or 0.125 μg) and followed up for 24 hours thereafter to observe any possible adverse effects of the treatment.
Of the 32 total mice used in the pilot study arm, in total 4 mice died during the 24 hour monitoring period after intrathecal infusion of RTX. Two females treated with 0.125 μg dose were found dead in cage within 4-24 hours after infusion due to unknown reason.

[2] = system: AAV-A53T mouse model of Parkinson's Disease-like (PD) pathology; experiment: Fine motor gait analysis accounting for left-right asymmetry (D7 data reevaluated); assay type: in vivo, C57Bl/6J male mice; conditions: for maximum left-right difference of hip angle: vs AAV-A53T Vehicle
Procedure: D7 fine motor gait analysis data from the study described above was reevaluated to determine how left-right asymmetry is manifested on kinematic parameters instead of assessing changes which occur bilaterally and that are captured in the “normal” overall gait score.
Typically, both the left and right sides of an animal are assessed for test parameters and the overall score and discriminant vector is based on the average of both the left and right-side values for a particular parameter. For example, the maximum hip angle is determined by the average of the left and right-side angle and it is similar in both AAV-Null Vehicle and AAV-A53T Vehicle groups. However, as shown in FIGS. 8A-8C when the left and right side measurements of the maximum hip angle were analyzed separately, the hip angle max of AAV-A53T Vehicle treated mice is smaller on the left side (FIG. 8A) than on the right side (FIG. 8B) when compared to AAV-Null mice.
Fine motor gait analysis was performed by creating a discriminant vector using the transformed data set, where left-right difference is used instead of the average of left and right.

[3] = Adverse effects and mortality monitoring in the main AAV-A53T study; assay type: in vivo, C57Bl/6J male mice
Procedure: For this study, a total of 110 male C57Bl/6J mice two months of age were infused with either AAV-A53T (90 mice) or AAV-Null (20 mice) into substantia nigra unilaterally to induce PD-like pathology or to serve as sham controls, respectively. Mice infused with AAV-Null (empty) vector (“sham-infused” mice) were used in order to control for the effect of the viral infusion. After 7 or 14 days of AAV-A53T mediated disease model induction, the mice were treated with RTX (0.04 μg or 0.125 μg) (5 μL volume, prepared from a 25 μg/ml RTX solution containing Polysorbate 80 at 0.03% w/v, dextrose at 0.05% w/v, Phosphate Buffer at 30 mM, and NaCl 0.54% w/v, pH 7.2, and diluted in saline as needed) by single intrathecal infusion at lumbar spinal cord area. One AAV-Null and AAV-A53T infused group per each time point were treated with vehicle instead of RTX.
The mice were then treated with RTX or vehicle by intrathecal infusion 7 or 14 days after AAV infusion. […]
Animals were monitored daily by laboratory personnel. […]

[4] = both RTX groups, vs AAV-A53T Vehicle D7

SMILES: C=C(C)[C@]12C[C@@H](C)[C@@]34O[C@](Cc5ccccc5)(O[C@@H]1[C@@H]3C=C(COC(=O)Cc1ccc(O)c(OC)c1)C[C@]1(O)C(=O)C(C)=C[C@@H]41)O2 [RTX, Resiniferatoxin]
- adverse effects in the rest of the mice ([1]; 0.04 μg or 0.125 μg, 24 hour follow-up): No significant adverse effects
- found dead in cage within 4-24 hours after infusion ([1]; 0.125 μg dose, unknown reason): Two females
- died immediately after infusion ([1]; 0.125 μg dosing group): one female and one male mouse
- mice died during the 24 hour monitoring period after intrathecal infusion ([1]; 32 mice total (16 male, 16 female), RTX 0.04 μg or 0.125 μg intrathecal): 4 mice
- maximum left-right difference of hip angle ([2]; AAV-A53T and 0.05 μg RTX (n=14)): reduction in the maximum difference
- maximum left-right difference of hip angle ([2]; AAV-A53T and 0.124 μg RTX (n=14)): reduction in the maximum difference
- hindlimb peak swing speed, left-right difference [2, 4]: reduced
- hindlimb swing speed, left-right difference [2, 4]: reduced
- left-right gait difference Discriminant Vector Score ([2]; both RTX groups, vs AAV-A53T vehicle, p<0.05 unpaired t-test): significantly lower
- diagonal interlimb coordination, left-right difference ([2]; low and high RTX dose groups): less of a a diagonal interlimb coordination difference
- mortalities, distribution between groups ([3]; 6 mice out of 110 lost including vehicle-treated mice, attributed to surgical procedure and anesthesia): evenly spread between the vehicle and both RTX low and high dose groups
- adverse effects of intrathecal RTX administration ([3]; low or high dose (0.04 μg or 0.125 μg), D7 or D14): No significant adverse effects
